Assay results published in publication PMC11570809, “Novel N-phenyl-2-(aniline) benzamide hydrochloride salt development for colon cancer therapy” (Frontiers in Pharmacology, 2024).
Values joined by “and” are separate entries in the source; they are usually repeats but may differ in a detail not shown here. Identical values can stand only once. “Also recorded” adds a separate entry of the source. Counter-ions that a name gives are not always drawn. Like-named read-outs stand apart in the source and are kept apart here.

Key:
Human COX-2 = target: T1, Human COX-2 (Homo sapiens, UniProt P35354); experiment: COX-2 inhibition assay (Human COX-2 Inhibitor Screening Kit); format: biochemical
T1 construct: purchased Beyotime S0168
T1 sequence (P35354 18-604): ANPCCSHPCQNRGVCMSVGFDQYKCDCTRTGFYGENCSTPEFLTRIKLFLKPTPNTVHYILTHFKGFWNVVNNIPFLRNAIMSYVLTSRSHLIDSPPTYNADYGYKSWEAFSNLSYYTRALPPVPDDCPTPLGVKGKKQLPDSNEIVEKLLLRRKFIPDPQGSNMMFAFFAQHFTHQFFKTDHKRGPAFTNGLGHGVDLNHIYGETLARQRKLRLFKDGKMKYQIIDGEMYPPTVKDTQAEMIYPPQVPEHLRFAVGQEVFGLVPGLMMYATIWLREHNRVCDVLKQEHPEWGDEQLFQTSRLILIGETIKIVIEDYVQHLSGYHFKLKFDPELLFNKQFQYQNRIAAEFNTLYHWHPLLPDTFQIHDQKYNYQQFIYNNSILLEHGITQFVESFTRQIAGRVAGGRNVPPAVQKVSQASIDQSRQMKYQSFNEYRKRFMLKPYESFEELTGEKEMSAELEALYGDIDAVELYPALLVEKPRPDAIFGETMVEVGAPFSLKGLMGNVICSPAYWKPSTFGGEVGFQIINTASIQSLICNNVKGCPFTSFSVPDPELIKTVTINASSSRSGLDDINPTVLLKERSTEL
Method: The COX-2 inhibitory activity of all the synthesized compounds was measured by the Human COX-2 Inhibitor Screening Kit (Beyotime, catalog no. S0168), and the specific steps were followed strictly according to the instructions. The lead compound N53 was also tested for reference purposes. The absorbance was measured at an excitation wavelength of 560 nm and an emission wavelength of 590 nm in a microplate reader. Each experimental condition was performed in triplicate and averaged.

HCT116 = experiment: MTT anti-proliferation assay, HCT116; format: cell-based, human; conditions: 72 h, read-out: IC50 ± SD HCT116
Method: The anti-proliferation activities of synthesized compounds to colon cancer cell lines were measured by the MTT (3-[4,5-dimethyl-2-thiazolyl]-2,5-diphenyl-2H-tet razolium bromide) assay. First, the cell suspension was prepared by trypsin and the corresponding medium, cells were diluted to 5 × 10^5 cells/mL, and 96-well plates were added 200 μL per well. The plates were maintained at 37°C in a humidified atmosphere containing 5% CO2 overnight. Then compounds at gradient concentrations were added to cells in the logarithmic phase to make the final concentration at 0.5, 1, 2, 4, 8, 16, and 32 μM. The cells were treated with tested compounds for 72 h, and the growth curve assay was tested in 24 h. When the time was up, 20 μL of MTT solution (5 mg/mL in PBS) was added into each well to incubate for 4 h at 37°C. Then the supernatant liquid was removed, 150 μL DMSO was added into every well to dissolve formazan crystals and read the absorbance at 570 nm by Spark microplate spectrophotometer (Tecan, Swiss). The IC50 values were analyzed by IBM SPASS Statistics 25.0 software. The data are all derived from three parallel experiments (n = 3) and expressed as mean ± SD.

[1] = Oral pharmacokinetics study; format: in vivo, SD rats; conditions: for T1/2 / Tmax: n = 3
Method: Six 250–280 g male SD rats, which are 8-week-old, were randomly divided into 2 groups (n = 3). The dose selection is based on previously described ([Xiaoling Hu et al., 2022]). 100 mg/kg N53 and N53·HCl dissolved in normal saline containing 2.5% polyoxyethylene castor oil and 2.5% DMSO was administrated by oral medications. The first group was given 100 mg/kg of N53 by intragastric administration, and the second group was given 100 mg/kg of N53·HCl by intragastric administration. For intragastric administration, blood samples were collected from the orbits of the rats in heparin sodium tubes at 0, 5, 15, 30 min, 1, 2, 4, 6, 8, 12, and 24 h after dosing; The above blood samples were centrifuged (2,500 rpm, 6 min, 4°C) to plasma, and stored at −80°C to be analyzed by LC-MS/MS. Firstly, 5 times methanol was added to each serum sample and mixed well. After centrifugation at 1,600 rpm for 10 min at 4°C, the samples were filtered through a 0.22 μm filter for analysis. The HPLC analysis was carried out on an ODS-C18 column (4.6 mm × 50 mm, 3 μm). The HPLC mobile phases consisted of water (0.1% formic acid) (A) and 95% acetonitrile (including 0.1% formic acid) (B), separated by gradient chromatography at 0.4 mL/min. Chromatographic conditions: mobile phase: 0–0.5 min, acetonitrile: H2O = 10:90; 0.5–0.6 min acetonitrile: H2O = 100:0, 0.6–2.4 min, acetonitrile: H2O = 100:0, 2.4–2.5 min acetonitrile: H2O = 10:90; wavelength: 254 nm; column temperature: 25°C. The column eluate was directly introduced into ES-API. The MS/MS instrument was conducted using the electrospray ionization (ESI) source with a positive ion detection mode. The analytes (N53·HCl) and IS (Propranolol) were all detected by multiple reactions monitoring (MRM) scan mode of transitions from precursor ions to product ions at m/z 435.2→192.1 for N53·HCl (retention time: 1.54 min), m/z 260.0→116.0 for IS (retention time: 1.54 min). The optimized instrument parameters are as follows: declustering potentials (DP) at 51 V for N53·HCl, 78 V for IS; entrance potentials (EP) at 8V; collision energies (CE) at 34 V for N53·HCl, 25 V for IS; collision cell exit potentials (CXP) at 7 V; curtain gas (CUR) at a pressure of 10 psi; turbo spray voltage at 5,500 V. Data acquisition of LC-MS/MS was performed with AnalystTM 1.5 software package (Applied Biosystems, MA, United States). The pharmacokinetic parameters for N53 and N53·HCl were calculated by using the non-compartment method (statistical moment) in DAS 2.0 software (Pharmacokinetics Institute of China).

[2] = Acute toxicity study (OECD guidelines), single dose by gavage; format: in vivo
Method: Acute toxicity studies were conducted for N53·HCl following OECD guidelines. Sixteen Kunming mice were purchased from SPF (Beijing) Biotechnology Co., Ltd. The mice were randomly divided into two groups (n = 8, 4 female and 4 male mice per group). The control group was treated with saline containing 10% DMSO, 10% Solutol HS -15, and the experimental group was treated with N53·HCl at a dose of 1,000 mg/kg (suspended in saline containing 10% DMSO and 10% Solutol HS -15).
All treatments were administered with a single dose by gavage. […] It can be seen that N53·HCl is a safe agent with an oral LD50 of more than 1,000 mg/kg in mice.

[3] = 100 mg/kg p.o., n = 3, mean ± SD

## Cc1c(Cl)cccc1Nc1ccccc1C(=O)Nc1ccc(N2CCN(C)CC2)cc1 [Compound N53, 2-((3-chloro-2-methylphenyl)amino)-N-(4-(4-methylp-iperazin-1-yl)phenyl)benzamide]
Human COX-2
  Inhibition rate (%) of COX-2 (2 μM): 3.6 ± 1.1%
HCT116
  IC50: 3.89 ± 0.41 µM
[1]; 100 mg/kg p.o.
  Cmax (peak plasma concentration): 333.7 µg/mL and 333 µg/mL
  T1/2: 10.78 h and 10.8 ± 0.7 h
  Tmax: 6.0 ± 2.0 h
[1]; [3]
  AUC0(-∞): 7200 ± 700 ng·h/mL
  CLz: 232 ± 21.7 mL/min/kg
  Cmax: 330 ± 40 µg/mL
[1]; male, SD, rat, plasma, po, 100 mg/kg, 100 mg/kg p.o., n = 3, mean ± SD, read-out: Vz/F
  Vd/F: 217 ± 33.3 L/kg

## Cc1c(Cl)cccc1Nc1ccccc1C(=O)Nc1ccc(N2CCN(C)CC2)cc1 [N53·HCl, 4-(4-(2-((3-chloro-2-methylphenyl)amino)ben-zamido)phenyl)-1-methylpiperazin-1-ium]
Human COX-2
  Inhibition rate (%) of COX-2 (2 μM): 32.5 ± 7.8%
HCT116
  IC50: 10.9 ± 1.3 µM
[1]; 100 mg/kg p.o.
  Cmax (peak plasma concentration): 680.0 µg/mL
  T1/2: 22.3 ± 9.9 h
  Tmax: 6.7 ± 4.6 h
[1]; [3]
  AUC0(-∞): 21200 ± 8000 ng·h/mL
  CLz: 85 ± 26.7 mL/min/kg
  Cmax: 680 ± 180 µg/mL
  Vz/F: 149.7 ± 11.6 L/kg
[1]; male, SD, rat, plasma, po, 100 mg/kg, 100 mg/kg p.o., read-out: Tmax
  Tmax: 6.67 h
[1]; oral
  AUC0–∞ increase relative to N53: 3 fold
  Cmax increase relative to N53: 2 fold
[2]; 1,000 mg/kg single dose by gavage, after 14 days
  Gross and histological (H&E) examination of major organs (heart, liver, kidney, spleen): no obvious toxic effects; also recorded: no significant abnormalities
[2]; 1,000 mg/kg single dose by gavage, monitored 14 days
  Symptoms and body weight compared to vehicle-treated control: no significant changes in symptoms and body weight
[2]; both sexes, Kunming, mouse, in vivo, po
  LD50 at 14 days: > 1000 mg/kg
